Measured values published in publication PMC11191095, “QSAR Reveals Decreased Lipophilicity of Polar Residues Determines the Selectivity of Antimicrobial Peptide Activity” (ACS Omega, 2024).
Where a SMILES comes first, the peptide text is derived from it.

What was measured:
Assay in all cases: microbe, parasite or virus in culture
E. coli LEC001 = format: cell-based, Escherichia coli; settings: E. coli LEC001 (R)
In short: (§1)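 Peptides 128→2 μg/mL, 2-fold series; inoculum ~5 × 10^5 CFU/mL from overnight culture (OD600 0.01, mixed 1:1). MHB non-cation-adjusted for bacteria, RPMI 1640 + 2% glucose for fungi. 37 °C, 20 h, OD600. MIC50/MIC90 at 50%/90% inhibition; n ≥ 3.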

E. coli NCTC 12923 = format: cell-based, Escherichia coli; settings: E. coli NCTC 12923 (S)
In short: as §1

P. aeruginosa NCTC 13437 = format: cell-based, Pseudomonas aeruginosa; settings: P. aeruginosa NCTC 13437 (R)
In short: as §1

A. baumannii ATCC 17978 = format: cell-based, Acinetobacter baumannii; settings: A. baumannii ATCC 17978 (S)
In short: as §1

A. baumannii AYE = format: cell-based, Acinetobacter baumannii; settings: A. baumannii AYE (R)
In short: as §1

K. pneumoniae M6 = format: cell-based, Klebsiella pneumoniae; settings: K. pneumoniae M6 (S)
In short: as §1

K. pneumoniae NCTC 13368 = format: cell-based, Klebsiella pneumoniae; settings: K. pneumoniae NCTC 13368 (R)
In short: as §1

S. aureus (MRSA) 1199B = format: cell-based, Staphylococcus aureus; settings: S. aureus (MRSA) 1199B (R)
In short: as §1

[1] = tested on: S. aureus (MRSA) NCTC 13616; format: cell-based, Staphylococcus aureus; settings: S. aureus (MRSA) NCTC 13616 (R)
In short: as §1

S. aureus (MRSA) USA300 = format: cell-based, Staphylococcus aureus; settings: S. aureus (MRSA) USA300 (R)
In short: as §1

[2] = tested on: S. aureus (MSSA) ATCC 9144; format: cell-based, Staphylococcus aureus; settings: S. aureus (MSSA) ATCC 9144 (S)
In short: as §1

C. albicans NCPF 3281 = format: cell-based; settings: C. albicans NCPF 3281
In short: as §1

C. glabrata NCPF 8018 = format: cell-based; settings: C. glabrata NCPF 8018
In short: as §1

C. krusei NCPF 3876 = format: cell-based; settings: C. krusei NCPF 3876
In short: as §1

[3] = tested on: C. parapsilosis NCPF 3209; format: cell-based; settings: C. parapsilosis NCPF 3209
In short: as §1

C. tropicalis NCPF 8760 = format: cell-based; settings: C. tropicalis NCPF 8760
In short: as §1

[4] = MHB, 37 °C, 20 h, OD600, min. three biological repeats
[5] = 50% growth inhibition, RPMI 1640 + 2% glucose, 37 °C, 20 h
[6] = 90% growth inhibition, RPMI 1640 + 2% glucose, 37 °C, 20 h

CC[C@H](C)[C@H](NC(=O)[C@H](CCCCN)NC(=O)[C@H](CC(C)C)NC(=O)[C@H](C)NC(=O)[C@H](C)NC(=O)[C@H](CCCCN)NC(=O)[C@H](CC(C)C)NC(=O)[C@H](C)NC(=O)[C@@H](N)CCCCN)C(=O)NCC(=O)N[C@@H](C)C(=O)N[C@@H](CC(N)=O)C(N)=O [CPF-P3-12a] (H-KALKAALKIGAN-NH2)
Modal MIC (E. coli LEC001; [4]): > 128 µg/mL
Modal MIC (E. coli LEC001; shown in µM): > 103.8 µM
Modal MIC (E. coli NCTC 12923; MHB, ~5×10^5 CFU/mL, 37 °C, 20 h, OD600, min. three biological repeats): > 128 µg/mL
Modal MIC (E. coli NCTC 12923; shown in µM): > 103.8 µM
Modal MIC (P. aeruginosa NCTC 13437; [4]): > 128 µg/mL
Modal MIC (P. aeruginosa NCTC 13437; shown in µM): > 103.8 µM
Modal MIC (A. baumannii ATCC 17978; [4]): > 128 µg/mL
Modal MIC (A. baumannii ATCC 17978; shown in µM): > 103.8 µM
Modal MIC (A. baumannii AYE; [4]): > 128 µg/mL
Modal MIC (A. baumannii AYE; shown in µM): > 103.8 µM
Modal MIC (K. pneumoniae M6; [4]): > 128 µg/mL
Modal MIC (K. pneumoniae M6; shown in µM): > 103.8 µM
Modal MIC (K. pneumoniae NCTC 13368; [4]): > 128 µg/mL
Modal MIC (K. pneumoniae NCTC 13368; shown in µM): > 103.8 µM
Modal MIC (S. aureus (MRSA) 1199B; [4]): > 128 µg/mL
Modal MIC (S. aureus (MRSA) 1199B; shown in µM): > 103.8 µM
Modal MIC [1, 4]: > 128 µg/mL
Modal MIC ([1]; shown in µM): > 103.8 µM
Modal MIC (S. aureus (MRSA) USA300; [4]): > 128 µg/mL
Modal MIC (S. aureus (MRSA) USA300; shown in µM): > 103.8 µM
Modal MIC [2, 4]: > 128 µg/mL
Modal MIC ([2]; shown in µM): > 103.8 µM
Modal MIC50 (C. albicans NCPF 3281; [5]): > 128 µg/mL
Modal MIC90 (C. albicans NCPF 3281; [6]): > 128 µg/mL
Modal MIC50 (C. albicans NCPF 3281; shown in µM): > 103.8 µM
Modal MIC90 (C. albicans NCPF 3281; shown in µM): > 103.8 µM
Modal MIC50 (C. glabrata NCPF 8018; [5]): > 128 µg/mL
Modal MIC90 (C. glabrata NCPF 8018; [6]): > 128 µg/mL
Modal MIC50 (C. glabrata NCPF 8018; shown in µM): > 103.8 µM
Modal MIC90 (C. glabrata NCPF 8018; shown in µM): > 103.8 µM
Modal MIC50 (C. krusei NCPF 3876; [5]): > 128 µg/mL
Modal MIC90 (C. krusei NCPF 3876; [6]): > 128 µg/mL
Modal MIC50 (C. krusei NCPF 3876; shown in µM): > 103.8 µM
Modal MIC90 (C. krusei NCPF 3876; shown in µM): > 103.8 µM
Modal MIC50 [3, 5]: > 128 µg/mL
Modal MIC90 [3, 6]: > 128 µg/mL
Modal MIC50 ([3]; shown in µM): > 103.8 µM
Modal MIC90 ([3]; shown in µM): > 103.8 µM
Modal MIC50 (C. tropicalis NCPF 8760; [5]): > 128 µg/mL
Modal MIC90 (C. tropicalis NCPF 8760; [6]): > 128 µg/mL
Modal MIC50 (C. tropicalis NCPF 8760; shown in µM): > 103.8 µM
Modal MIC90 (C. tropicalis NCPF 8760; shown in µM): > 103.8 µM
